Test [1] addresses Tumour suppressor p53/oncoprotein Mdm2 (Homo sapiens, UniProt Q00987). The test is described as follows: (§1) Inhibitory concentration against MDM2-p53 interaction in SJSA human sarcoma cells. Type of test: cell-based, SJSA-1.
Test [2] deals with Tumour suppressor p53/oncoprotein Mdm2 (Homo sapiens, UniProt P04637+Q00987). The description is as §1. Type of test: cell-based, SJSA-1. Conditions: sjsa-1.

Molecules are shown by their SMILES.

Chain of Tumour suppressor p53/oncoprotein Mdm2 (Homo sapiens, UniProt Q00987) (P04637 whole entry): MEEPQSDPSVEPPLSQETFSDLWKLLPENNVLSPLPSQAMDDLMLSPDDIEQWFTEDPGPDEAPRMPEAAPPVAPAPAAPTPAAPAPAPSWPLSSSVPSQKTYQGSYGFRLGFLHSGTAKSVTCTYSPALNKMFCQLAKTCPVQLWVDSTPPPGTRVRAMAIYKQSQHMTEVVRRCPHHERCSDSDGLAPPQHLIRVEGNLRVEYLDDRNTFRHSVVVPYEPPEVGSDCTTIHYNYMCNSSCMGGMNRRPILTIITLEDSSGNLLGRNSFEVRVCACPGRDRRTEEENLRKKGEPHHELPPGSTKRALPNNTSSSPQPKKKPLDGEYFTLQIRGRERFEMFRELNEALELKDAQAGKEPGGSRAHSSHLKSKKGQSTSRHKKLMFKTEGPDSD
Chain of Tumour suppressor p53/oncoprotein Mdm2 (Homo sapiens, UniProt Q00987) (Q00987 whole entry): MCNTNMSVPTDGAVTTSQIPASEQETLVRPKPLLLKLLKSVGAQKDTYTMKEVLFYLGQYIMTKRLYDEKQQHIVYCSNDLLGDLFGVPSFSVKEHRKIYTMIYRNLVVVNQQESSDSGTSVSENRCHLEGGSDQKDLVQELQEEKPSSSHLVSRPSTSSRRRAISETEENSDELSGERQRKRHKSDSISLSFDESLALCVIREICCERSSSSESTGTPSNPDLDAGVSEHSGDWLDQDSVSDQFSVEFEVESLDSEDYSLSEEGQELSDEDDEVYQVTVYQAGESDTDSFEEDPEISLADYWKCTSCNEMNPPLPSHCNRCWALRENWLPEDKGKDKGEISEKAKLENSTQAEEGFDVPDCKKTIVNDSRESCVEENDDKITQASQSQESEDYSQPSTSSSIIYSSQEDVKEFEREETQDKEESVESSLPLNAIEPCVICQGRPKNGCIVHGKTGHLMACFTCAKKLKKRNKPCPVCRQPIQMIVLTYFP
Chain of Tumour suppressor p53/oncoprotein Mdm2 (Homo sapiens, UniProt P04637+Q00987) (P04637 whole entry): as the sequence (P04637 whole entry) above
Chain of Tumour suppressor p53/oncoprotein Mdm2 (Homo sapiens, UniProt P04637+Q00987) (Q00987 whole entry): as the sequence (Q00987 whole entry) above

As a reminder, the IC50 is the point on the concentration scale where inhibition reaches its midpoint. A lower IC50 goes with higher potency. Regarding `CCCNC1(c2ccccc2)c2ccccc2C(=O)N1Cc1ccccc1` (centres undefined), the IC50 in test [1] is approximately 200 µM. On to `COc1ccc(C(O)CNC2(c3ccccc3)c3ccccc3C(=O)N2Cc2ccccc2)cc1` (centres undefined), for which half-maximal inhibition in test [1] (IC50) required 70 µM. On the same count and under the same terms, the same measure for `O=C1c2ccccc2C(OCCc2ccccn2)(c2ccc(Cl)cc2)N1Cc1ccccc1` (centres undefined): 26.2 µM. The compound `CCCN1C(=O)c2ccccc2C1(OCCCO)c1ccccc1` (centres undefined) returned a concentration for half-maximal inhibition (IC50) in test [1] of more than 500 µM.

The compound `CCCN1C(=O)c2ccccc2C1(OCCc1ccccn1)c1ccccc1` (centres undefined) came in with an IC50 in test [1] of 100 µM. Same read-out and setting: the same measure for `COc1cc(COC2(c3ccc(Cl)cc3)c3ccccc3C(=O)N2Cc2ccccc2)cc(OC)c1O` (centres undefined): 42 µM.

In the case of `COc1cc(COC2(c3ccccc3)c3ccccc3C(=O)N2Cc2ccccc2)cc(OC)c1O` (centres undefined), 17.9 µM corresponded to half-maximal inhibition in test [1] (IC50). With `CCCN1C(=O)c2ccccc2C1(NC(=O)c1ccccc1)c1ccc(C(C)(C)C)cc1` (centres undefined), in test [1], the IC50 was found to be 66 µM. This IC50 lies about 3.7-fold higher than the previous one. Still for that read-out and setting: the same measure for `CCCN1C(=O)c2ccccc2C1(OCc1ccc(C(C)(C)C)cc1)c1ccccc1` (centres undefined): more than 500 µM; for `CC(=O)NCCN1C(=O)c2ccccc2C1(OCc1ccc(C(C)(C)C)cc1)c1ccc(Cl)cc1` (centres undefined): 91.4 µM. On to `COc1cc(COC2(c3ccc(Cl)cc3)c3ccccc3C(=O)N2CCNC(C)=O)cc(OC)c1O` (centres undefined), for which, in test [1], the IC50 was determined as 76 µM. For the compound `CCCOC1(c2ccccc2)c2ccccc2C(=O)N1CCC` (centres undefined), in test [1], the half-inhibitory concentration (IC50) was approximately 200 µM. The compound `CC(C)(C)c1ccc(COC2(c3ccccc3)c3ccccc3C(=O)N2Cc2ccccc2)cc1` (stereo in doubt; 5) displayed an IC50 in test [1] of 92 µM. Take `CCCN1C(=O)c2ccccc2C1(OCc1cc(OC)c(O)c(OC)c1)c1ccccc1` (centres undefined): in test [1], half-maximal inhibition (IC50) required 82 µM.

As to `CCCN1C(=O)c2ccccc2C1(OCc1cc(OC)c(O)c(OC)c1)c1ccc(Cl)cc1` (centres undefined), the concentration for half-maximal inhibition (IC50) in test [1] worked out at 5.3 µM. With `CC(C)(C)c1ccc(COC2(c3ccccc3)c3ccccc3C(=O)N2Cc2ccccc2)cc1` (stereo in doubt; 2d), half-maximal inhibition in test [2] (IC50) was put at 92 µM. That is a double-digit micromolar value.

In the case of `CCCOC1(c2ccccc2)c2ccccc2C(=O)N1Cc1ccccc1` (centres undefined), in test [1], the IC50 was approximately 200 µM.

The compound `CCCN1C(=O)c2ccccc2C1(OCCCO)c1ccc(Cl)cc1` (centres undefined) gave an IC50 in test [1] of 16.4 µM. In test [1], `CCCOC1(c2ccccc2)c2ccccc2C(=O)N1C(Cc1ccc(O)cc1)C(=O)OC` (centres undefined) yielded an IC50 of 90 µM.

`CCCN1C(=O)c2ccccc2C1(OCCc1ccccn1)c1ccc(Cl)cc1` (centres undefined) came in with an IC50 in test [1] of 57 µM. In test [1], `CCCN1C(=O)c2ccccc2C1(NC(=O)c1ccc(C(C)(C)C)cc1)c1ccc(OCOCC[Si](C)(C)C)cc1` (centres undefined) yielded an IC50 of 27 µM. On to `CC(=O)NCCN1C(=O)c2ccccc2C1(OCc1ccc(C(C)(C)C)cc1)c1ccccc1` (centres undefined), for which half-maximal inhibition in test [1] (IC50) required 14 µM.

Consider `O=C1c2ccccc2C(OCCCO)(c2ccc(Cl)cc2)N1Cc1ccccc1` (centres undefined), for which the IC50 in test [1] came out at 15.9 µM. Regarding `CC(C)(C)c1ccc(COC2(c3ccc(Cl)cc3)c3ccccc3C(=O)N2Cc2ccccc2)cc1` (centres undefined), the IC50 in test [1] worked out at 99 µM.

The record behind these values is ChEMBL document CHEMBL1142026, “Isoindolinone-based inhibitors of the MDM2-p53 protein-protein interaction” (Bioorg Med Chem Lett, 2005).
